Test results as given in US6251898A, “Medical use of fluorenone derivatives for treating and preventing brain and spinal injury” (Questcor Pharmaceuticals, Inc., priority 1999, dated 2001).
pIC50: −log10 of the molar value.

Assays:
[1] = tested on: UC11-MG human astrocytoma cells; assay: D-aspartate (excitotoxin) release by hypo-osmotically stressed astrocytoma cells; type: cell-based
Text: The in vitro tests described in this example used UC11-MG human astrocytoma cells, obtained from the University of Cincinnati, and described in Liwnicz et al 1986 and Lomneth et al 1989. Cell culture reagents (including RPMI 1640, fetal bovine serum, trypsin, and gentamicin) were obtained from Gibco (Gaithersburg, Md.). Radiolabelled D-[2,3-^3 H]aspartate was obtained from Amersham Life Sciences (Buckinghamshire, England). ScintiVerse II scintillation fluid was obtained from Fisher Scientific (Pittsburgh, Pa.). All other chemicals were obtained from Sigma Chemical Co. (St. Louis, Mo.). Osmolarities of solutions were measured using the Advance DigiMatic Osmometer Model 3D II (Advanced Instruments Inc., Mass.).
The UC11-MG astrocytoma cells were cultured in 75 ml vented flasks at 37° C. inside a humidified incubator in 5% CO2 /95% air. The cells were grown in RPMI Medium 1640 supplemented with 10% fetal bovine serum and […] gentamicin. At approximately 90% confluence, the cells were detached and suspended using a 0.0625% trypsin solution in Buffer A (137 mM NaCl, 5.37 mM KCl, 5.55 mM glucose, 4.17 mM NaHCO3, and 0.54 mM EDTA disodium salt, pH 7.4). The cells were then plated onto 6-well tissue culture plates at a seeding ratio of 4 plates per flask and 4 ml of cell-media suspension per well. The plated cells were used in experiments the next day at approximately 90% confluence. Plates that appeared to be more than 95% confluent were not used, because higher levels of confluence led to uncontrollable differentials in exposure of the cells to culture media and labelled aspartate. All tests were performed in triplicate. All media collections were done at 5 minute intervals, using pipettes, and were followed by promptly loading fresh buffer into each well before any drying occurred. All buffer samples collected in this manner were loaded into scintillation vials, mixed with 5 ml scintillation fluid, and counted for 1 minute in a scintillation counter (Beckman LS8000, Fullerton, Calif.).
Prior to D-aspartate exposure, the wells were washed three times under sterile conditions with 3 ml of 37° C. Buffer B (122 mM NaCl, 3.3 mM KCl, 1.2 mM CaCl2, 0.4 mM MgSO4, 1.2 mM KH2 PO4, 25 mM Hepes, 10 mM glucose, pH 7.4).
The cells were then loaded with 0.5 μCi/ml of D-aspartate, and incubated at 37° C. for 30 min. Cells were then washed four times with Buffer B, and the last washing fluid was left on the cells. The plates were then placed on an orbital shaker and maintained at 37° C.
Baseline aspartate release levels (prior to drug treatment) were determined by incubating the cells with normal Buffer B (285 mOsm) for 15 minutes, while buffer was collected every 5 minutes.
After the buffer was collected from a well at the 15 minute mark, the next set of normal Buffer B added to that well contained a test compound at a known concentration; each compound was tested over a range of concentrations. Cells were then incubated for two 5 minute intervals with solutions of test compounds in normal Buffer B. In some tests which used buffers containing relatively high concentrations of a test drug with limited solubility in water, DMSO was added to the mixture to increase the solubility of the compound in water.
Beginning at the 25-minute mark, the cells were stimulated to begin releasing aspartate by loading a well with hypo-osmotic buffer, prepared by diluting Buffer B with an equal volume of distilled and deionized H2 O, resulting in an osmolarity of about 145 mOsm. This hypo-osmoticsolution caused the cells to begin taking in excess water, to try to reestablish the normal osmotic gradients that exist across the cell membranes. The water-induced swelling and stress then began to induce release of aspartate by the cells, and the amount of aspartate released by the swollen astrocyte cells was measured by removing the buffer every 5 minutes and testing it in a scintillation counter.

[2] = tested on: neuronal damage caused by global brain ischemia; assay: Global cerebral ischemia, bilateral carotid occlusion model in gerbils; type: in vivo, Mongolian gerbils
Text: The surgical and drug treatment procedures used in the animal model of global brain ischemia are described in Example 24. "Global" ischemia occurs when the entire brain is deprived of oxygenated blood, as occurs during crises such as cardiac arrest, suffocation, or carbon monoxide poisoning. It should be noted that the drug treatment was provided only after the ischemic insult had been fully completed (i.e., after the clamps which were used to temporarily close the carotid arteries had been released again). "Post-trauma" treatment offers a much more realistic, and much more difficult and stringent, challenge than other assays in which test animals are pre-treated with a test drug before an ischemic insult begins.
In one set of in vivo tests, the bilateral carotid occlusion model in gerbils was used to evaluate the abilities of a selected compound, GERI-E7, to protect against neuronal damage caused by global brain ischemia. These tests were performed in the laboratory of Dr. Claude Wasterlain, at the Sepulveda Veterans Administration Medical Center, in Los Angeles, Calif.
Adult male Mongolian gerbils were subjected to reversible bilateral carotid occlusion for 5 minutes, according to standard methods (e.g., Wasterlain et al 1992 and 1996). Each gerbil in a test group was then treated with a test compound at either 2 or 20 mg/kg, dissolved in injectable saline and administered intravenously (IV). Control animals were treated with saline. All treatment and control groups had 10 animals per group. Body temperature was maintained throughout the procedure by a heat lamp and rectal probe.
The gerbils were sacrificed 72 hours after surgery, and their brains were perfusion-fixed with paraformaldehyde. Serial sections of the brain were cut and stained with hematoxylin and eosin, and quantitative cell counts of live and dead neurons were made, using light and fluorescence microscopy, in two different parts of the brain that are highly sensitive to ischemic damage: (i) the subiculum, a zone of transition between the parahippocampus and the hippocampus; and (ii) the CA1 portion of the hippocampus. Statistical analysis was performed on all damage scores (non-paired student t test). All evaluations were made using double-blinded methods.

## CCC[C@]12CCC(=O)C=C1c1c(cc(OCC3=NCCO3)c(Cl)c1Cl)C2 [GERI-E7, R(+)-2-[[(5,6-dichloro-2,3,9,9a-tetrahydro-3-oxo-9a-propyl-1H-fluoren-7-yl)-oxy]methyl]oxazoline]
[1]; Homo sapiens, UC11MG, hypo-osmotic stress, about 145 mOsm, AUC-based, read-out: IC50 value (suppression of excitotoxin / D-aspartate release by stressed astrocyte cells)
  pIC50: 5.07
[1]; relative to L-644,711 (100% = benchmark)
  Comparative potency: 3,100%
[2]; CA1 region of hippocampus, IV after 5 min occlusion, 72 h, 2 or 20 mg/kg, on average
  Reduction of dead or dying neurons in the hippocampus: about 40%
[2]; animal model used
  Reduction of brain damage caused by global brain ischemia: very effective in reducing brain damage
[2]; mainly visual semi-quantitative methods
  Reduction in neuronal damage levels in other brain regions: significant reduction in neuronal damage levels in most of the other areas
[2]; subiculum and CA1, versus saline control, student t test
  Reduction in neuronal damage in both brain regions evaluated: substantial and statistically significant reduction in neuronal damage
[2]; subiculum, IV after 5 min occlusion, 72 h, 2 or 20 mg/kg, on average
  Reduction of dead or dying neurons in the subiculum: about 30%
